One data set has as its system alcoholic hepatitis. The following applies: human clinical studies; cited from earlier work.
Data set [1] has as its system liver injury and fibrosis. The conditions noted are these: several animal models; cited from earlier work.
Data set [2] can be described thus: Encapsulation efficiency of rolipram in FLVs. The data set is classed as physicochemical. The conditions noted are these: FLVs 10 mg/mL lipid, rolipram 0.75 mg/mL, diluted 5 or 10 times. As for the experimental part:
FIGS. 5A-C show the encapsulation efficiency percent of rolipram when 10 (A), 12.5 (B) and 15 mg/mL of FLV lipid (C) was hydrated with buffer containing 0.75 mg/mL of rolipram and diluted in water five or 10 times. The percentage of free rolipram in buffer was calculated by measuring the amount of free drug in buffer after FLVs in solution were filtered out. More than 50% of drug remained encapsulated with either of the dilutions over time. The amount of rolipram associated with FLVs appeared to fluctuate over time but it stabilized at the end of […]. FLVs=fusogenic vesicles.
After dilution the rolipram EE % of FLVs was similar when either excipient or no excipient was utilized. FLVs=fusogenic lipid vesicles, SOA=Sucrose octaacetate, SAIB=acetate isobutyrate.
To evaluate the ability of the FLVs to retain rolipram in an aqueous system, 0.75 mg/mL of rolipram was loaded into the lipid bilayer and internal liquid compartment of FLVs using four concentrations of lipid: 5, 10, 12.5, and 15 mg/ml. The rolipram encapsulation efficiency was quantified.
To evaluate the effect of dilution on encapsulation efficiency of FLVs-rolipram, different concentrations of FLV lipid (10, 12.5 and 15 mg/ML) were hydrated with the same amount of rolipram (0.75 mg/mL) and then diluted in water 5 and 10 times. Rolipram levels in the external buffer compartment were measured over a 90 min period. […]

The subject of data set [3] is mouse aortic endothelial cells (MAECs). Put plainly: Fusion rate of rolipram-loaded vesicles to MAECs. It is filed as cell-based. The text has this: FIGS. 8A-B show the fusion rate of FLVs-Rolipram to RAW cells and mouse aortic endothelial cells (MAECs) in the presence or absence of excipients in the vehicle. Using fluorescent-labeled FLVs and a Nanoparticle Tracking Analysis instrument to quantify FLV numbers, the fusion rate of vesicles to RAW cells was quantified over time. (A) Lipid vesicles formulated with DOPC/POPA (3:2) loaded with rolipram (DOPC:POPA-R) fused to RAW cells at a faster rate than DOPC vesicles loaded with rolipram (DOPC). […] FLVs=fusogenic lipid vesicles, SOA=Sucrose octaacetate, SAIB=acetate isobutyrate.
Studies quantifying the fusion rate of vesicles loaded with rolipram to RAW or mouse aortic endothelial cells (MAECs) were performed. In the first experiment, the fusion rate of lipid vesicles to RAW cells using a highly fusogenic vesicle formulated with DOPC/POPA was compared to less fusogenic vesicle formulated with DOPC (FIG. 8A). […] In the second experiment, the fusion rate of FLVs to MAECs using the excipients sucrose octaacetate (SOA) or SAIB and the same vesicle lipid formulations as in the experiment above were performed. […] Also, SOA an excipient used to enhance the stability of FLVs-rolipram during storage appears to augment the fusion rate of FLVs.

Data set [4] concerns TNF. Put plainly: LPS mediated TNF expression in ethanol treated cells. The data set is classed as cell-based. The following applies: data not shown. The text has this: Studies in monocytes have shown that cAMP plays an important role in regulating TNF expression, and that the elevation of cellular cAMP suppresses TNF production. Therefore, the instant inventors evaluated (1) the effects of chronic ethanol exposure on the cellular levels of cAMP, and (2) TNF expression in monocytes in vitro and in rat primary hepatic Kupffer cells obtained from a clinically relevant enteral alcohol feeding model of alcoholic liver disease (ALD). […] Consistent with these decreased cAMP levels, ethanol led to an increase in LPS-inducible TNF mRNA expression (FIG. 2) and TNF protein, without any change in the TNF mRNA stability (data not shown). Enhancement of cellular cAMP with dbcAMP abrogated LPS mediated TNF expression in ethanol treated cells (data not shown).

In data set [5] the test system is TNF. The experiment in a line: LPS-stimulated TNF expression in human PBMCs pre-treated with rolipram. The data set is classed as cell-based. As for the experimental part: PBMCs isolated from a healthy individual were pre-treated with rolipram (1, 5, and 10 μM) for 30 minutes and further stimulated with LPS (1 μg/ml) for 6 hours. Cell-free supernatants were analyzed for TNF expression by ELISA. Rol=rolipram. TNF=tumor necrosis factor-alpha, FLVs=fusogenic lipid vesicles.
The effect of chronic ethanol exposure on PDE4 gene expression and activity in human THP-1 and mouse RAW macrophages was evaluated next, as a mechanism for the decreased intracellular cAMP levels and the increased LPS-stimulated TNF.^4 PDE4 (predominantly present in monocytes) degrades and inactivates cAMP, with PDE4B playing a critical role in LPS signaling. It was shown that chronic alcohol increased LPS-inducible PDE4B mRNA expression (FIG. 2).

For data set [6], the system named is α2-adrenoceptor-mediated xylazine/ketamine-induced anesthesia. Put plainly: Duration of xylazine/ketamine anesthesia (behavioral correlate of emesis). The data set is classed as in vivo, male C57BL/6 mice. The following applies: free rolipram IV, mean of the 3 groups (1.6, 3.3 and 6.6 mg/kg bw); paired control 75.1±4.7 min. As for the experimental part:
FLVs-Rol=Fusogenic lipid vesicles-rolipram.
Safety pharmacology studies were conducted to determine the dose-response relationship of adverse effects observed by rolipram. The primary side effect of rolipram is the inhibition of PDE4 activity in the CNS, which leads to emesis in humans. The mechanism of the emetic response associated with PDE4 inhibitors is thought to produce a pharmacological response analogous to that of presynaptic α2-adrenoceptor inhibition, by elevating intracellular levels of cAMP in noradrenergic neurons. Consequently, PDE4 inhibitors remove an inhibitory mechanism that modulates the release of mediators (5-HT, substance P, noradrenaline) involved in the onset of the emetic reflex. […]
Since rodents are a non-vomiting species, examining rolipram-induced side effects in rodents is particularly difficult.^34-36 To circumvent this problem, a behavioral correlate of emesis model in mice was utilized.^35 In this model, rolipram is used to reverse the duration of α2-adrenoceptor-mediated xylazine/ketamine-induced anesthesia, which is temporally quantified by the return of the righting reflex. […] After 15 min, the mice were placed on a controlled heating pad in the dorsal recumbent position and the duration of anesthesia was determined by timing the return of the righting reflex. […]

In data set [7] the test system is cholestatic liver injury and fibrosis. The following applies: rat, in vivo; cited from earlier work.
Data set [8] relates to TNF production in RAW 264.7 cells. The experiment in a line: RAW cell assay: LPS-induced TNF production (ELISA). The conditions noted are these: LPS 100 ng/mL 18 h, SAIB 0.5 mg/mL, FLVs 10 mg/mL lipid. It is filed as cell-based, mouse. As for the experimental part:
Cells were treated with SAIB (0.5 mg/mL), FLVs (10 mg/mL of lipid) with SAIB (FLV-SAIB) or FLVs-rolipram 0.75 mg/mL (FLV-Rol) without SAIB and stimulated with LPS (100 ng/mL) for 18 h. The effect of SAIB was evaluated by quantifying TNF production using an ELISA kit. SAIB alone appears to exert a beneficial effect, and FLVs with SAIB have a greater beneficial effect. FLVs=fusogenic lipid vesicles, LPS=endotoxin, SAIB=acetate isobutyrate.
Cells were treated with 0.73 mg/mL rolipram (Rol), FLVs only, or 0.73 mg/mL of FLVs-rolipram (FLVs-Rol) and stimulated with LPS (100 ng/mL) for 24 h. Control cells received treatment but no LPS. TNF in media was measured using an ELISA kit. UT=untreated cells, FLVs=fusogenic vesicles, LPS=endotoxin.
The effect of adding SAIB (0.5 mg/mL) to the vehicle was tested in vitro using RAW cells pulsed with LPS (100 ng/mL) and evaluated for TNF production. Rolipram (0.75 mg/mL) encapsulated in of 10 mg/mL of lipid without SAIB was used as a control.
An in vitro screening assay to evaluate the effectiveness of the FLVs-rolipram formulations was developed. The assay uses a murine macrophage cell line (RAW 264.7 cells), which produces high levels of TNF in response to LPS stimulation. […] After 24 h, TNF protein was measured in cell free supernatant by ELISA kit (FIG. 14).
Background: An ELISA detects its analyte on a solid surface through an enzyme-linked reagent.

Take `CC(=O)CCCCn1c(=O)c2c(ncn2C)n(C)c1=O` [Pentoxifylline]: the “mortality in patients with AH” value in the data set on alcoholic hepatitis is on record as “decreased mortality”. In addition, the “liver injury and fibrosis” value in data set [1] is “attenuate liver injury and fibrosis”.
Regarding `CC(=O)OC[C@H]1O[C@@](COC(C)=O)(O[C@H]2O[C@H](COC(C)=O)[C@@H](OC(C)=O)[C@H](OC(C)=O)[C@H]2OC(C)=O)[C@@H](OC(C)=O)[C@@H]1OC(C)=O` [SOA, sucrose octaacetate], the “effect of excipient on rolipram encapsulation efficiency” value in data set [2] is recorded as “did not significantly alter”. In [3], the “effect of excipient on fusion rate of DOPC/POPA FLVs-rolipram to MAECs” value is listed as “enhanced the fusion rate”.
On to `CCCC(=O)Nc1ncnc2c1ncn2[C@@H]1O[C@@H]2COP(=O)(O)O[C@H]2[C@H]1OC(=O)CCC` [dbcAMP], for which the “LPS mediated TNF expression” value in the data set on TNF [4] is “abrogated”.
As to `COc1ccc(C2CNC(=O)C2)cc1OC1CCCC1` (stereo not drawn) [rolipram, 4-(3-Cyclopentyloxy-4-methoxy-phenyl) pyrrolidin-2-one], in the data set with TNF [5] (human PBMCs stimulated with LPS, data not shown), the “TNF mRNA” value is “significantly downregulated”. For the same compound, the TNF protein entry in the data set on TNF [5] (human PBMCs, rolipram 1, 5, 10 μM 30 min, LPS 1 μg/ml 6 h, ELISA, dose-dependent) was “significantly downregulated”. In addition, in data set [6], the mean anesthesia time was found to be 48.6 ± 5.5 min. Further, in [7], the “protection against cholestatic liver injury and fibrosis” value is given as “significant protection”.
Turning to sucrose acetate isobutyrate [SAIB], the “effect of excipient on rolipram encapsulation efficiency” value in data set [2] is on record as “did not significantly alter”. Besides, the TNF production entry in data set [8] is recorded as “reduced the effect of LPS”. The “effect of excipient on fusion rate of DOPC/POPA FLVs-rolipram to MAECs” value in [3] is given as “appeared to decrease the fusion rate”.

(Values after US20190275003A1, “ENCAPSULATION OF PHOSPHODIESTERASE INHIBITORS TO TREAT ALCOHOLIC LIVER DISEASE” (University of Louisville Research Foundation, Inc., priority 2016, published 2019).)
